Source: US9963445B2, “Chemical compounds” (SYNGENTA PARTICIPATIONS AG, priority 2013, dated 2018)

Key:
Type in all cases: in vivo
Abutilon theophrasti [1] = assay: Pre-emergence herbicidal activity, glasshouse pot test; conditions: pre-emergence spray, rate 1000 g/ha, evaluated after 13 days, scale 0-5
Summary of the method: (§1)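 Damage score 0–5 (5 = total damage) read 13 d after spraying. Pots sown, sprayed pre-emergence at day 1 with aqueous spray from acetone/water 50:50 + 0.5% Tween 20 formulation; glasshouse 24/16 °C, 14 h light, 65% RH.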

Alopecurus myosuroides [2] = assay: as above; conditions: pre-emergence spray, rate 1000 g/ha, evaluated after 13 days, scale 0-5
Summary of the method: as §1

Amaranthus retroflexus [3] = assay: as above; conditions: pre-emergence spray, rate 1000 g/ha, evaluated after 13 days, scale 0-5
Summary of the method: as §1

Echinochloa crus-galli [4] = assay: as above; conditions: pre-emergence spray, rate 1000 g/ha, evaluated after 13 days, scale 0-5
Summary of the method: as §1

Setaria faberi [5] = assay: as above; conditions: pre-emergence spray, rate 1000 g/ha, evaluated after 13 days, scale 0-5
Summary of the method: as §1

zea mays [6] = assay: as above; conditions: pre-emergence spray, rate 1000 g/ha, evaluated after 13 days, scale 0-5
Summary of the method: as §1

Abutilon theophrasti [7] = assay: Post-emergence herbicidal activity, glasshouse pot test; design: key: 0 = no damage to plant, 5 = total damage to plant; conditions: Application post-emergence, rate 1000 g/ha, evaluated after 13 days
Summary of the method: (§2)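 Damage rated 0 (none) to 5 (total) 13 days after spraying. Plants were treated post-emergence at 8 days after sowing, using an acetone/water (50:50) formulation with 0.5% Tween 20 diluted to an aqueous spray.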

Alopecurus myosuroides [8] = assay: as above; design: key: 0 = no damage to plant, 5 = total damage to plant; conditions: Application post-emergence, rate 1000 g/ha, evaluated after 13 days
Summary of the method: as §2

Amaranthus retroflexus [9] = assay: as above; design: key: 0 = no damage to plant, 5 = total damage to plant; conditions: Application post-emergence, rate 1000 g/ha, evaluated after 13 days
Summary of the method: as §2

Echinochloa crus-galli [10] = assay: as above; design: key: 0 = no damage to plant, 5 = total damage to plant; conditions: Application post-emergence, rate 1000 g/ha, evaluated after 13 days
Summary of the method: as §2

Setaria faberi [11] = assay: as above; design: key: 0 = no damage to plant, 5 = total damage to plant; conditions: Application post-emergence, rate 1000 g/ha, evaluated after 13 days
Summary of the method: as §2

zea mays [12] = assay: as above; design: key: 0 = no damage to plant, 5 = total damage to plant; conditions: Application post-emergence, rate 1000 g/ha, evaluated after 13 days
Summary of the method: as §2

In the case of `CC1=C(Cl)C(=O)N(c2ncc(F)cc2F)C1O` (stereo not drawn) [AF62], the “ABUTH damage score, application pre-emergence” value (“ABUTH damage score” for short) (Abutilon theophrasti [1]) is reported as 2, the “ALOMY damage score, application pre-emergence” value (“ALOMY damage score” for short) (Alopecurus myosuroides [2]) is reported as 0 and the “AMARE damage score, application pre-emergence” value (“AMARE damage score” for short) (Amaranthus retroflexus [3]) is reported as 2. For the same molecule, the “ECHCG damage score, application pre-emergence” value (“ECHCG damage score” for short) (Echinochloa crus-galli [4]) was 0, the “SETFA damage score, application pre-emergence” value (“SETFA damage score” for short) (Setaria faberi [5]) was 0 and the “ZEAMX damage score, application pre-emergence” value (“ZEAMX damage score” for short) (zea mays [6]) was 0. For the same molecule, the “ABUTH herbicidal damage score” value (Abutilon theophrasti [7]) was 2, the “ALOMY herbicidal damage score” value (Alopecurus myosuroides [8]) was 1 and the “AMARE herbicidal damage score” value (Amaranthus retroflexus [9]) was 0. The “ECHCG herbicidal damage score” value (Echinochloa crus-galli [10]) was 1, the “SETFA herbicidal damage score” value (Setaria faberi [11]) was 1 and the “ZEAMX herbicidal damage score” value (zea mays [12]) was 0.
In the case of `CC1=C(Cl)C(=O)N(c2ncc(C(F)(F)F)cc2F)C1O` (stereo not drawn) [AF63], the “ABUTH damage score” value (Abutilon theophrasti [1]) is reported as 0, the “ALOMY damage score” value (Alopecurus myosuroides [2]) is reported as 0 and the “AMARE damage score” value (Amaranthus retroflexus [3]) is reported as 0. The “ECHCG damage score” value (Echinochloa crus-galli [4]) was 0, the “SETFA damage score” value (Setaria faberi [5]) was 0 and the “ZEAMX damage score” value (zea mays [6]) was 0. The “ABUTH herbicidal damage score” value (Abutilon theophrasti [7]) was 1, the “ALOMY herbicidal damage score” value (Alopecurus myosuroides [8]) was 1 and the “AMARE herbicidal damage score” value (Amaranthus retroflexus [9]) was 0. The “ECHCG herbicidal damage score” value (Echinochloa crus-galli [10]) was 1, the “SETFA herbicidal damage score” value (Setaria faberi [11]) was 1 and the “ZEAMX herbicidal damage score” value (zea mays [12]) was 0.
In the case of `CC1=C(Cl)C(=O)N(c2cc(OC(F)(F)F)ccn2)C1O` (stereo not drawn) [AF74], the “ABUTH damage score” value (Abutilon theophrasti [1]) is reported as 2, the “ALOMY damage score” value (Alopecurus myosuroides [2]) is reported as 3 and the “AMARE damage score” value (Amaranthus retroflexus [3]) is reported as 5. For the same molecule, the “ECHCG damage score” value (Echinochloa crus-galli [4]) was 4, the “SETFA damage score” value (Setaria faberi [5]) was 4 and the “ZEAMX damage score” value (zea mays [6]) was 2. The “ABUTH herbicidal damage score” value (Abutilon theophrasti [7]) was 5, the “ALOMY herbicidal damage score” value (Alopecurus myosuroides [8]) was 4 and the “AMARE herbicidal damage score” value (Amaranthus retroflexus [9]) was 5. For the same molecule, the “ECHCG herbicidal damage score” value (Echinochloa crus-galli [10]) was 5, the “SETFA herbicidal damage score” value (Setaria faberi [11]) was 5 and the “ZEAMX herbicidal damage score” value (zea mays [12]) was 2.
For `CCCC1=C(Cl)C(=O)N(c2cc(C(F)(F)F)ccn2)C1O` (stereo not drawn) [AF81], the “ABUTH damage score” value (Abutilon theophrasti [1]) was 4, the “ALOMY damage score” value (Alopecurus myosuroides [2]) was 3 and the “AMARE damage score” value (Amaranthus retroflexus [3]) was 5. The “ECHCG damage score” value (Echinochloa crus-galli [4]) was 5, the “SETFA damage score” value (Setaria faberi [5]) was 2 and the “ZEAMX damage score” value (zea mays [6]) was 2. For the same molecule, the “ABUTH herbicidal damage score” value (Abutilon theophrasti [7]) was 5, the “ALOMY herbicidal damage score” value (Alopecurus myosuroides [8]) was 4 and the “AMARE herbicidal damage score” value (Amaranthus retroflexus [9]) was 5. For the same molecule, the “ECHCG herbicidal damage score” value (Echinochloa crus-galli [10]) was 5, the “SETFA herbicidal damage score” value (Setaria faberi [11]) was 4 and the “ZEAMX herbicidal damage score” value (zea mays [12]) was 2.
For `CC(C)(C)C1=C(Cl)C(=O)N(c2cc(C(F)(F)F)ccn2)C1O` (stereo not drawn) [AF82], the “ABUTH damage score” value (Abutilon theophrasti [1]) was 0, the “ALOMY damage score” value (Alopecurus myosuroides [2]) was 0 and the “AMARE damage score” value (Amaranthus retroflexus [3]) was 0. For the same molecule, the “ECHCG damage score” value (Echinochloa crus-galli [4]) was 0, the “SETFA damage score” value (Setaria faberi [5]) was 0 and the “ZEAMX damage score” value (zea mays [6]) was 1. For the same molecule, the “ABUTH herbicidal damage score” value (Abutilon theophrasti [7]) was 0, the “ALOMY herbicidal damage score” value (Alopecurus myosuroides [8]) was 0 and the “AMARE herbicidal damage score” value (Amaranthus retroflexus [9]) was 0. For the same molecule, the “ECHCG herbicidal damage score” value (Echinochloa crus-galli [10]) was 3, the “SETFA herbicidal damage score” value (Setaria faberi [11]) was 0 and the “ZEAMX herbicidal damage score” value (zea mays [12]) was 2.
With `CC(C)C1=C(Cl)C(=O)N(c2cc(C(F)(F)F)ccn2)C1O` (stereo not drawn) [AF83] the “ABUTH damage score” value (Abutilon theophrasti [1]) was 0, the “ALOMY damage score” value (Alopecurus myosuroides [2]) was 2 and the “AMARE damage score” value (Amaranthus retroflexus [3]) was 2. The “ECHCG damage score” value (Echinochloa crus-galli [4]) was 2, the “SETFA damage score” value (Setaria faberi [5]) was 1 and the “ZEAMX damage score” value (zea mays [6]) was 1. For the same molecule, the “ABUTH herbicidal damage score” value (Abutilon theophrasti [7]) was 2, the “ALOMY herbicidal damage score” value (Alopecurus myosuroides [8]) was 3 and the “AMARE herbicidal damage score” value (Amaranthus retroflexus [9]) was 0. For the same molecule, the “ECHCG herbicidal damage score” value (Echinochloa crus-galli [10]) was 2, the “SETFA herbicidal damage score” value (Setaria faberi [11]) was 0 and the “ZEAMX herbicidal damage score” value (zea mays [12]) was 0.
For `CCC1=C(Cl)C(=O)N(c2cc(C(F)(F)F)ccn2)C1O` (stereo not drawn) [AF84, 4-chloro-3-ethyl-2-hydroxy-1-[4-(trifluoromethyl)-2-pyridyl]-2H-pyrrol-5-one], the “ABUTH damage score” value (Abutilon theophrasti [1]) was 2, the “ALOMY damage score” value (Alopecurus myosuroides [2]) was 3 and the “AMARE damage score” value (Amaranthus retroflexus [3]) was 5. For the same molecule, the “ECHCG damage score” value (Echinochloa crus-galli [4]) was 5, the “SETFA damage score” value (Setaria faberi [5]) was 2 and the “ZEAMX damage score” value (zea mays [6]) was 0. For the same molecule, the “ABUTH herbicidal damage score” value (Abutilon theophrasti [7]) was 5, the “ALOMY herbicidal damage score” value (Alopecurus myosuroides [8]) was 5 and the “AMARE herbicidal damage score” value (Amaranthus retroflexus [9]) was 4. For the same molecule, the “ECHCG herbicidal damage score” value (Echinochloa crus-galli [10]) was 5, the “SETFA herbicidal damage score” value (Setaria faberi [11]) was 5 and the “ZEAMX herbicidal damage score” value (zea mays [12]) was 3.
With `CC1=C(Cl)C(=O)N(c2cc(C(F)(F)F)c(-c3ccc(Cl)cc3)cn2)C1O` (stereo not drawn) [AF87] the “ABUTH damage score” value (Abutilon theophrasti [1]) was 0, the “ALOMY damage score” value (Alopecurus myosuroides [2]) was 2 and the “AMARE damage score” value (Amaranthus retroflexus [3]) was 2. For the same molecule, the “ECHCG damage score” value (Echinochloa crus-galli [4]) was 0, the “SETFA damage score” value (Setaria faberi [5]) was 3 and the “ZEAMX damage score” value (zea mays [6]) was 0. For the same molecule, the “ABUTH herbicidal damage score” value (Abutilon theophrasti [7]) was 4, the “ALOMY herbicidal damage score” value (Alopecurus myosuroides [8]) was 4 and the “AMARE herbicidal damage score” value (Amaranthus retroflexus [9]) was 5. For the same molecule, the “ECHCG herbicidal damage score” value (Echinochloa crus-galli [10]) was 4, the “SETFA herbicidal damage score” value (Setaria faberi [11]) was 5 and the “ZEAMX herbicidal damage score” value (zea mays [12]) was 3.
With `CC1=C(Cl)C(=O)N(c2cc(C(F)(F)F)c(C(=O)NC(C)(C)C)cn2)C1O` (stereo not drawn) [AF88] the “ABUTH damage score” value (Abutilon theophrasti [1]) was 5, the “ALOMY damage score” value (Alopecurus myosuroides [2]) was 4 and the “AMARE damage score” value (Amaranthus retroflexus [3]) was 5. For the same molecule, the “ECHCG damage score” value (Echinochloa crus-galli [4]) was 5, the “SETFA damage score” value (Setaria faberi [5]) was 5 and the “ZEAMX damage score” value (zea mays [6]) was 4. The “ABUTH herbicidal damage score” value (Abutilon theophrasti [7]) was 5, the “ALOMY herbicidal damage score” value (Alopecurus myosuroides [8]) was 5 and the “AMARE herbicidal damage score” value (Amaranthus retroflexus [9]) was 5. The “ECHCG herbicidal damage score” value (Echinochloa crus-galli [10]) was 5, the “SETFA herbicidal damage score” value (Setaria faberi [11]) was 5 and the “ZEAMX herbicidal damage score” value (zea mays [12]) was 5.
In the case of `CC1=C(Cl)C(=O)N(c2cc3c(cn2)CCCC3)C1O` (stereo not drawn) [AF89], the “ABUTH damage score” value (Abutilon theophrasti [1]) is reported as 1, the “ALOMY damage score” value (Alopecurus myosuroides [2]) is reported as 2 and the “AMARE damage score” value (Amaranthus retroflexus [3]) is reported as 2. For the same molecule, the “ECHCG damage score” value (Echinochloa crus-galli [4]) was 3, the “SETFA damage score” value (Setaria faberi [5]) was 5 and the “ZEAMX damage score” value (zea mays [6]) was 1. For the same molecule, the “ABUTH herbicidal damage score” value (Abutilon theophrasti [7]) was 5, the “ALOMY herbicidal damage score” value (Alopecurus myosuroides [8]) was 3 and the “AMARE herbicidal damage score” value (Amaranthus retroflexus [9]) was 5. The “ECHCG herbicidal damage score” value (Echinochloa crus-galli [10]) was 5, the “SETFA herbicidal damage score” value (Setaria faberi [11]) was 5 and the “ZEAMX herbicidal damage score” value (zea mays [12]) was 1.
